29 compounds from ChEMBL document CHEMBL6127051, “Hydrazinecarboxamides: Comprehensive review of their anticancer, anticonvulsive, anti-inflammatory, enzyme inhibition, antioxidant and other activities” (Eur J Med Chem, 2024) can be followed below.

In test [1] the test system is A549. The test can be described thus: Anticancer activity against human A549 cells assessed as inhibition of cell growth at 3 uM incubated for 48 hrs by MTT assay relative to control. Format: functional. Further details: scale not given: the % may be the effect or the level left.
The test system of another test is PC-3. In words: Anticancer activity against human PC-3 cells assessed as inhibition of cell growth at 3 uM incubated for 48 hrs by MTT assay relative to control. Further details: scale not given: the % may be the effect or the level left. Format: functional. For orientation: Formazan colour is commonly taken as a measure of viable cells.
Another test concerns HepG2. The test can be described thus: Antiproliferative activity against human HepG2 cells assessed as reduction in cell viability measured for 24 hrs by MTT assay. The conditions noted are these: HepG2, 24 h.
Test [2] relates to A549. The test can be described thus: Antiproliferative activity against human A549 cells assessed as reduction in cell viability measured for 24 hrs by MTT assay. To be noted: A549, 24 h.
The target in test [3] is T1, Retinoic acid receptor RXR-alpha (Homo sapiens, UniProt P19793).
T1 sequence (P19793 whole entry): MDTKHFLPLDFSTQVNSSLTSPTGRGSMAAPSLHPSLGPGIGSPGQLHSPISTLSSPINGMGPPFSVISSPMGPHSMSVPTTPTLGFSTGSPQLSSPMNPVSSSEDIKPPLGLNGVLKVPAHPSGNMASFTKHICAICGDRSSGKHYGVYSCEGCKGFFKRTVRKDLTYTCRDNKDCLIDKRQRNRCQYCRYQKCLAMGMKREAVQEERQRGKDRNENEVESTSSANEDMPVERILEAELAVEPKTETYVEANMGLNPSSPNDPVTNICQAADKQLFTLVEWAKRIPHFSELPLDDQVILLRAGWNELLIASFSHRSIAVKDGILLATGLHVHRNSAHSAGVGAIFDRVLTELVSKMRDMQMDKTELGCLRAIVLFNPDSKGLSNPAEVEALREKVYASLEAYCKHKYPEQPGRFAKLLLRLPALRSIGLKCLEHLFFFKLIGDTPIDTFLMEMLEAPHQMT
In words: Antagonist activity at RXRalpha (unknown origin) by Alpha Screen assay. On the technique in general: Bead proximity is the source of the signal in Alpha formats.

The subject of test [4] is Mus musculus. In words: Anticonvulsant activity in ip dosed scPTZ induced Kunming mouse seizure model. Format: functional.
Test [5] concerns Mus musculus. The test can be described thus: Anticonvulsant activity in ip dosed MES induced Kunming mouse seizure model. Format: functional.
The nature of test [6]: Antioxidant activity assessed as DPPH radical scavenging activity at 10 ug/ml. Format: functional. To be noted: dose 10.0 µg/ml. On the technique in general: DPPH is a stable violet radical that fades when it is reduced.
Test [7] deals with MCF7. The test can be described thus: Anticancer activity against human MCF7 cells assessed as reduction in cell growth measured after 3 days by MTT assay. Format: functional, cell-based. The conditions noted are these: MCF7, 72 h.
For another test, the target named is Cholinesterase (Equus caballus, UniProt P81908). The test can be described thus: Inhibition of equine serum BChE using butyrylthiocholine iodide as substrate measured after 15 mins by Ellman's method.
Cholinesterase, sequence (P81908 whole entry): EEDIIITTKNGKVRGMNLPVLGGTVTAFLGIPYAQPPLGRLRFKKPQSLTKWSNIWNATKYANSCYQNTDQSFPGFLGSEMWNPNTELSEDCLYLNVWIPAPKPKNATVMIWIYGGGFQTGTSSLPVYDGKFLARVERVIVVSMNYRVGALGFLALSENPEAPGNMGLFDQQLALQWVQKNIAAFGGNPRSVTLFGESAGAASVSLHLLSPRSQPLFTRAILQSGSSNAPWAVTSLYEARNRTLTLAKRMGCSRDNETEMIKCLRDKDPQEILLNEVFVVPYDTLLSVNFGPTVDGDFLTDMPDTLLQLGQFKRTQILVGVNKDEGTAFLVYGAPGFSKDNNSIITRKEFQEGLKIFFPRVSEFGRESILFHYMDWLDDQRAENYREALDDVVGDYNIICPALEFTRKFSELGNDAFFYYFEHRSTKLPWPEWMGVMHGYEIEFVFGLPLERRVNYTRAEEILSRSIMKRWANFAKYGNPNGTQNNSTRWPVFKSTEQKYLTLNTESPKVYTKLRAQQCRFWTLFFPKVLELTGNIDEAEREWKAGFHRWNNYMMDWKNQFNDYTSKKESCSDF
The test system of test [8] is MCF7. In words: Antiproliferative activity against human MCF7 cells assessed as reduction in cell viability incubated for 72 hrs by MTT assay. Format: functional, cell-based. The conditions noted are these: MCF7, 72 h.
Test [9] deals with A549. In words: Antiproliferative activity against human A549 cells assessed as reduction in cell viability by MTT assay. Format: functional, cell-based.
The test system of test [10] is A549. In words: Antiproliferative activity against human A549 cells. Format: functional, cell-based.
For test [11], the system named is MCF7. The test can be described thus: Antiproliferative activity against human MCF7 cells. Format: functional, cell-based.
The subject of the next test is MDA-MB-231. In words: Antiproliferative activity against human MDA-MB-231 cells. Format: functional, cell-based.
Test [12] concerns MCF7. The test can be described thus: Antiproliferative activity against human MCF7 cells assessed as reduction in cell viability measured for 72 hrs by MTT assay. Format: functional, cell-based. To be noted: MCF7, 72 h.
Test [13] deals with MCF7. The test can be described thus: Cytotoxicity against human MCF7 cells assessed as reduction in cell growth. Format: functional, cell-based.
The subject of test [14] is MCF7. In words: Anticancer activity against human MCF7 cells assessed as reduction in cell growth incubated for 24 hrs by MTT assay. Format: functional, cell-based. The conditions noted are these: MCF7, 24 h.
Test [15] can be described thus: Inhibition of Escherichia coli beta-glucuronidase.
The subject of another test is UO-31. The test can be described thus: Antiproliferative activity against human UO-31 cells assessed as inhibition of cell growth at 10 uM relative to control. Also on record: scale not given: the % may be the effect or the level left. Format: functional.
In test [16] the test system is A549. The test can be described thus: Antiproliferative activity against human A549 cells assessed as reduction in cell viability incubated for 72 hrs by MTT assay. Format: functional, cell-based. To be noted: A549, 72 h.
Another test relates to NCI-H23. The test can be described thus: Antiproliferative activity against human NCI-H23 cells assessed as reduction in cell viability incubated for 72 hrs by MTT assay. Format: functional, cell-based. The conditions noted are these: NCI-H23, 72 h.
A further test deals with WI-38. The test can be described thus: Antiproliferative activity against human WI-38 cells assessed as reduction in cell viability. Format: functional, cell-based.
The nature of test [17]: Antioxidant activity assessed as ABTS radical scavenging activity after 30 mins by spectrophotometric analysis. Format: functional.

As to `COc1ccc(C(C)(C)C)cc1NC(=O)NNC1=NS(=O)(=O)c2ccccc2N1c1ccccc1`, the Activity is given as 99% with A549 [1] and “>=71%” with PC-3.
For orientation: IC50 means the midpoint of a concentration-inhibition curve. What is called EC50 is the concentration giving half of the maximal effect. Take `CCCCNC(=O)NNC(=O)c1ccc(Nc2nccc(-c3ccncc3)n2)cc1`: the half-inhibitory concentration (IC50) with HepG2 amounted to 2.17 µM; in the test with A549 [2], 8.39 µM. In [3], this compound registered a 50% effective concentration (EC50) of 1.05 µM.
A word on the ED50: it is the dose that gives a 50% effect, or the effect in half of the subjects. For the compound `CCOC(=O)C1(NC(=O)NNS(=O)(=O)c2ccccc2Cl)CC1(C)C` (stereo not given), the ED50 in the test on Mus musculus [4] and in the test with Mus musculus [5] was 82.6 mg/kg throughout.
For `COc1cc(/C=C2\N=C(C)N(NC(=O)N3c4ccccc4C=Cc4ccccc43)C2=O)ccc1O`, the Activity in [6] was 73.9%.
With `COc1cc(NC(C)CCCNC(=O)NNC(=O)/C=C/c2ccccc2F)c2ncccc2c1` (stereo not given), the concentration for half-maximal inhibition (IC50) in the test on MCF7 [7] came to 0.03 µM.
The compound `CCCCCCCCCCCCCNC(=O)NNC(=O)c1cccc(Br)c1` had an IC50 against Cholinesterase of 22 µM.
`COc1cc(NC(C)CCCNC(=O)NNC(=O)/C=C/c2cccc(C(F)(F)F)c2)c2ncccc2c1` (stereo not given): in the test with MCF7 [7], the IC50 worked out at 0.03 µM.
For the compound `COc1cc(NC(C)CCCNC(=O)NNC(=O)NO)c2ncccc2c1` (stereo not given), the results for the half-inhibitory concentration (IC50) with MCF7 [8], with A549 [9] and with A549 [10] were 1 µM, 4 µM and 1.5 µM, respectively.
As for `Cc1ccc(NC(=O)NNC(=O)c2cc3ccccc3[nH]2)cc1`, the results for the IC50 in the test on MCF7 [11], with MDA-MB-231 and in the test with MCF7 [12] were 9.03 µM, 9.03 µM and 1.2 µM, respectively.
The compound `Cc1ccc(N(C(=O)CNN2C(=O)C(=O)N(C(C)C)C2=O)C2(C(N)=O)CCCCC2)cc1` registered an ED50 in the test with Mus musculus [5] of 44.5 mg/kg.
The compound `CCCCCCCCCCCCCCCNC(=O)NNC(=O)c1ccc(C(F)(F)F)cc1` displayed a 50% inhibitory concentration (IC50) against Cholinesterase of 58 µM.
Turning to `COc1cc(NC(C)CCCNC(=O)NNC(=O)NC2CCCC2)c2ncccc2c1` (stereo not given), the IC50 in the test with MCF7 [8] was 1 µM; with A549 [9], 4 µM; in the test on A549 [10], 1.5 µM.
As to `O=C(NNC(=O)n1nnc2ccccc21)NC1CCCC1`, the IC50 with MCF7 [13] amounted to 79 µM.
Turning to `O=C(NO)NNC(=O)n1nnc2ccccc21`, the IC50 in the test on MCF7 [13] is 79 µM.
On to `CC(C)(C)NC(=O)NNC(=O)c1ccc(Nc2nccc(-c3ccncc3)n2)cc1`, for which the IC50 in the test on HepG2 is 2.17 µM; in the test with A549 [2] it was 8.39 µM. In [3], this compound came in with an EC50 of 1.05 µM.
Take `COc1cc(NC(C)CCCNC(=O)NNC(=O)/C=C/c2ccc(Cl)cc2)c2ncccc2c1` (stereo not given): in the test on MCF7 [7], the IC50 is 0.03 µM.
Take `O=C(NNC(=O)n1nnc2ccccc21)NC1CCCCC1`: the IC50 with MCF7 [13] amounted to 79 µM.
As for `NNC(=O)Nc1nc2ccccc2o1`, in the test on MCF7 [14], the IC50 worked out at 218 µM.
With `O=C(NNC(=O)n1nnc2ccccc21)NOC(=O)c1ccccc1`, in the test with MCF7 [13], the IC50 was found to be 79 µM.
Regarding `COc1cc(C(=O)NN2C(=O)C(=O)N(C(C)C)C2=O)cc2c1OCCO2`, in the test on Mus musculus [5], the ED50 came to 7.6 mg/kg.
`COc1ccc(CC(=O)NNC(=O)Nc2ccccc2OC)cc1` came in with an IC50 in [15] of 16.8 µM.
In the case of `O=C(NNC(=O)n1nnc2ccccc21)NC(c1ccccc1)c1ccccc1`, the half-inhibitory concentration (IC50) in the test with MCF7 [13] amounted to 79 µM.
Take `Cc1nc(NC(=O)Nc2ccccc2)sc1C(=O)NNC(=O)Nc1ccccc1`: the Activity in the test with UO-31 is on record as 14.8%.
In the case of `COc1cc(NC(C)CCCNC(=O)NNC(=O)/C=C/c2cc(OC)c(OC)c(OC)c2)c2ncccc2c1` (stereo not given), in the test with MCF7 [7], the half-inhibitory concentration (IC50) turned out to be 0.03 µM.
Take `COc1cccc(NC(=O)NNC(=O)c2oc3ccccc3c2CN2CCOCC2)c1`: the half-inhibitory concentration (IC50) came out at 1.5 µM in the test on A549 [16], 1.49 µM in the test on NCI-H23 and 12.9 µM in the test on WI-38.
With `COc1ccc(/C=C2\N=C(C)N(NC(=O)N3c4ccccc4C=Cc4ccccc43)C2=O)cc1`, the Activity in test [6] came to 73.9%.
Consider `COc1cc(NC(C)CCCNC(=O)NNC(=O)NC2CCCCC2)c2ncccc2c1` (stereo not given), for which the half-maximal inhibitory concentration (IC50) stood at 1 µM with MCF7 [8], 4 µM in the test with A549 [9] and 1.5 µM with A549 [10].
Take `CNC(=O)NNC(=O)c1ccc(Cl)cc1`: on Cholinesterase, the half-maximal inhibitory concentration (IC50) amounted to 22 µM.
For `O=C(Cn1c(Cc2ccccc2)nc2ccccc21)NNC(=O)Nc1ccccc1`, the Activity in test [17] worked out at 126%.
